Entries after “also recorded” stand apart in the source; their conditions may differ.
Assays:
[1] = test system: NADH production by serine catabolism; test: In vivo [2,3,3-2H]serine infusion, malate labeling; conditions: WT C57BL6/J mice, SHIN2 200 mg/kg ip single injection before 2.5 h tracer infusion
Procedure: Mouse breeding and isotope tracing. Animal studies followed protocols approved by the Princeton University Institutional Animal Care and Use Committee and the Rutgers University Institutional Animal Care and Use Committee. NDUFS4+/− mice were purchased from Jackson Laboratory. The mice were on normal light cycle (7 AM-7 PM). In vivo infusion was performed on 9-week old normal C57BL/6 mice pre-catheterized on the right jugular vein, and 4-week old NDUFS4−/− or NDUFS4+/+ mice pre-catheterized on the jugular vein. Infusion was performed for 2.5 h to achieve isotopic pseudo-steady state. The mouse infusion setup included a tether and swivel system, connecting to the button pre-implanted under the back skin of mice. Mice were fasted from 9:00 am to 2 pm, and infused from 2 pm till 4:30 pm. […]
Calculation of 2H-serine contribution to malate, aspartate, and NADH: For malate and aspartate, the 2H-labeling fraction was measured directly (fractional size of 2H-peak relative to sum of all peaks, after isotope correction as above). For NADH, the 2H-labeling fraction was measured based on the active hydride labeling (x), which was determined from the labeling pattern of NAD+ and NADH by least square fitting in MATLAB of the observed experimental data (after natural isotope correction) to the below vectors (Liu et al., 2016a). […]

NDUFS4−/− mice = test: Treatment of NDUFS4−/− mice (mitochondrial disease model); type: in vivo
Procedure: NDUFS4−/− mice were housed with normal mice and gel food was supplied to guarantee sufficient food supply. Mice were grouped as vehicle control group and SHIN2 treatment groups. SHIN2 was dissolved in 20% 2-hydroxypropyl-cyclodextrin solution, and delivered by intraperitoneal (50 μg/g mice) b.i.d. Mice weights were recorded every day. Limb clasps were recorded daily, with mice annotated as having the pathological limb clasping phenotype on the third consecutive day of clasping. 20% weight loss of the peak weight for each mouse is considered as the humane endpoint.
Mouse Model. B6.129S4-Ndufs4+/− mice were purchased from Jackson laboratories. The mice are heterozygous for a protein in mitochondrial complex 1 and have been bred to generate homozygous knockout mouse for the study of mitochondrial deficiency. These mice are a model of mitochondrial disease and knockouts are healthy until approximately 5 weeks age, but develop lethal encephalomyopathy by 7 weeks.
Treatment strategy: Mice were grouped as vehicle treatment group and KDG112 treatment group. KDG112 was dissolved in 20% hydroxypropyl cyclodextrin to a final concentration of 5 mg/ml. Mice were dosed B.I.D at 50 mg/kg ip. Mice weight and body temperature are recorded, and body condition score were given according to the chart below.

[2] = KDG112 50 mg/kg ip B.I.D, compared to vehicle

Cc1n[nH]c2c1C(c1cc(C#CCCCO)cc(CO)c1)(C(C)C)C(C#N)=C(N)O2 (stereo not drawn) [SHIN2]
malate labeling from [2,3,3-2H]serine (NADH production by serine catabolism) [1]: blocks NADH production by serine catabolism in vivo; also recorded: blocked most malate labeling | body condition score (NDUFS4−/− mice; [2]): lower score | body temperature (NDUFS4−/− mice; [2]): higher body temperature | locomotor activity (NDUFS4−/− mice; [2]): better locomotor activity | symptoms of hind limb clasp (NDUFS4−/− mice; [2]): delayed symptoms of hind limb clasp | pathological limb clasping (NDUFS4−/− mice; SHIN2 50 mg/kg b.i.d. from postnatal day 25±4, versus vehicle, 50 mg/kg): Delayed occurrence of limb clasping; also recorded: delayed pathological clasping behavior | survival (NDUFS4−/− mice; SHIN2 50 mg/kg b.i.d. versus vehicle, p=0.18, log-rank Test): not significantly altering survival | time after day 49 until hind limb clasping symptoms develop (NDUFS4−/− mice; first pair of pups, KDG112 treated mouse): 10 days | leg control and cage edge test (NDUFS4−/− mice; first pair of pups, day 49 (P49), treatment from P29): can control its leg normally as wild type, and can walk freely on the edge test | body weight (NDUFS4−/− mice; first pair of pups, day 63): still maintains its weight | day at which symptoms such as hind limb clasping develop (NDUFS4−/− mice; second pair of pups, KDG112 treated mouse): 47 days | behaviour (NDUFS4−/− mice; second pair of pups, day 38, treatment from P28): behaves normally
